The structures appear in SMILES notation. In brackets after ≈: the same amount, converted by molar mass.

Series [1] has as its system Human immunodeficiency virus 2. As to the kind of experiment: Antiviral activity against HIV2 ROD after 48 hrs […]. Format: functional, organism-based. The note with it: Human immunodeficiency virus 2, ROD.
For series [2], the system named is Human immunodeficiency virus 1. The experiment in a line: Antiviral activity against HIV1 3B after 48 hrs […]. It is filed as functional, organism-based. To be noted: Human immunodeficiency virus 1, 3B.
Series [3] addresses Human immunodeficiency virus type 1 reverse transcriptase (Human immunodeficiency virus 1, UniProt Q72547). The experiment in a line: Inhibition of HIV-1 reverse transcriptase after 1 hr by ELISA.
The nature of series [4]: Selectivity index, ratio of CC50 for human C8166 cells to EC50 for HIV1 3B infected in human C8166 cells. Format: toxicity, cell-based. The note with it: read-out: Selectivity Index.
The test system of a further series is C8166. As to the kind of experiment: Cytotoxicity against human C8166 cells assessed as reduction in cell viability. It is filed as functional, cell-based.
Series [5] relates to Human immunodeficiency virus 2. As to the kind of experiment: Antiviral activity against HIV2 ROD. Format: functional, organism-based. To be noted: Human immunodeficiency virus 2, ROD.
Series [6] relates to Human immunodeficiency virus 1. The experiment in a line: Antiviral activity against HIV1 3B. It is filed as functional, organism-based. To be noted: Human immunodeficiency virus 1, 3B.
In series [7] the test system is Human immunodeficiency virus 1. The experiment in a line: Antiviral activity against wild type HIV1 3B infected in human MT4 cells using [3H]dGTP by radio-labelled binding assay. The note with it: Human immunodeficiency virus 1, 3B. It is filed as functional, organism-based.
Series [8] concerns TZM. The experiment in a line: Cytotoxicity against human TZM-bl cells. It is filed as functional.
The subject of series [9] is Human immunodeficiency virus 1. The experiment in a line: Antiviral activity against wild type HIV1 3B infected in human TZM-bl cells after 4 days by ELISA. It is filed as functional, organism-based. The note with it: Human immunodeficiency virus 1, 3B, 96 h.
Series [10] can be described thus: Selectivity index, ratio of CC50 for human TZM-bl cells to EC50 for wild type HIV1 3B infected in human TZM-bl cells. Format: toxicity, cell-based. To be noted: read-out: Selectivity Index.
The subject of series [11] is Human immunodeficiency virus 1. As to the kind of experiment: Antiviral activity against HIV1. It is filed as functional, organism-based.
Series [12] has as its system Human immunodeficiency virus 1. The experiment in a line: Antiviral activity against HIV1 3B infected in human C8166 cells. To be noted: Human immunodeficiency virus 1, 3B, C8166. Format: functional, organism-based.
For series [13], the system named is Human immunodeficiency virus 1. The experiment in a line: Antiviral activity against HIV1 3B infected in human MT4 cells. Format: functional, organism-based. To be noted: Human immunodeficiency virus 1, 3B.
The subject of series [14] is Human immunodeficiency virus 1. The experiment in a line: Antiviral activity against wild type HIV1 3B infected in human TZM-bl cells assessed as viral infection at 50 ug/ml after 1 hr relative to control. It is filed as functional. The note with it: Human immunodeficiency virus 1, 3B.
For series [15], the system named is TZM. The experiment in a line: Cytotoxicity against human TZM-bl cells assessed as reduction in cell viability after 4 hrs by MTT assay. Format: functional.
Series [16] is described as follows: Inhibition of HIV reverse transcriptase. Also on record: species or system Human immunodeficiency virus.
The subject of a further series is HeLa. The experiment in a line: Cytotoxicity against human HeLa cells expressing CD4-LTR-beta-gal assessed as reduction in cell viability. It is filed as functional.
Series [17] deals with Human immunodeficiency virus. The experiment in a line: Antiviral activity against HIV infected in human HeLa cells expressing CD4-LTR-beta-gal. The note with it: Human immunodeficiency virus 1, HeLa. Format: functional, organism-based.
For series [18], the system named is Human immunodeficiency virus 1. The experiment in a line: Antiviral activity against wild type HIV1 3B infected in human TZM-bl cells. Format: functional, organism-based. To be noted: Human immunodeficiency virus 1, 3B.

For `Cc1ccc(NC(=O)CSC2[Se]N=NC2c2ccc(Cl)c(Cl)c2)c([N+](=O)[O-])c1` (configuration not stated), the EC50 was above 26.3 µM in series [1] and 5.42 µM in series [2].
Regarding `COc1ccc2c(c1)CCCN2CCC(=O)N1CCN(c2cccc(Cl)c2)CC1`, the IC50 in series [3] is 18.6 µM; with C8166, 97.5 µg/mL (≈ 236 µM). In addition, the selectivity ratio in [4] is 5.3.
As for `Cn1cc(C(=O)O)c(=O)c2ccc(N3CCN(c4ccccn4)CC3)nc21`, the EC50 in series [5] was found to be 0.55 µg/mL (≈ 1.51 µM); in series [6], 0.62 µg/mL (≈ 1.7 µM).
On to `Cc1ccc(NC(=O)CSC2[Se]N=NC2c2ccc(Cl)c(Cl)c2)cc1` (configuration not stated), for which the EC50 in series [1] was above 13.3 µM; in series [2], 6.65 µM.
Turning to `Cc1cccc(N2C(=O)CSC2c2c(F)cccc2Cl)n1` (configuration not stated), the IC50 in series [7] was found to be 0.053 µM.
Take `O=C1OC(c2ccccc2Cl)C(Cl)c2ccccc21` (configuration not stated): it took 136 µM to reach half-maximal cytotoxicity with TZM [8] (CC50). In addition, in series [9], it took 12.3 µM to reach a half-maximal effect (EC50). The selectivity ratio in [10] was found to be 11.1.
As for `COc1ccc(CNC(=O)c2cc(C(C)(C)NC(=O)OCc3ccccc3)cc(O)c2O)cc1`, a half-maximal response in series [11] (EC50) required 0.15 µM.
`CC1OC(=O)c2ccccc2C1(Cl)c1ccccc1` (configuration not stated) had a CC50 in the series on TZM [8] of 293 µM. In [9], this compound yielded an EC50 of 29.3 µM. Besides, in series [10], the selectivity ratio turned out to be 10.
In [12], `CCc1c(CC2CCCCC2)nc(SCC(=O)c2ccccc2)[nH]c1=O` showed a concentration giving a half-maximal response (EC50) of 0.012 nM. Moreover, the selectivity ratio in series [4] came to 6.32e+06.
The compound `Cc1cc(C)cc(S(=O)(=O)c2c(C(=O)NCc3ccncc3)[nH]c3ccc(Cl)cc23)c1` had a concentration for a half-maximal effect (EC50) in [13] of 0.002 µM.
In turn, `O=c1[nH]c(=O)n([C@H]2C[C@H](O)[C@@H](CO)O2)cc1CCCOc1ccc(OCc2ccccc2)cc1` gave a half-maximal inhibitory concentration (IC50) in series [11] of 2.18 µM.
Consider `O=C(CC1(O)C(=O)Nc2ccc(Cl)cc21)c1ccccc1Cl` (configuration not stated), for which, in series [12], 0.76 µM corresponded to half-maximal inhibition (IC50).
Take `CCC1OC(=O)c2ccccc2C1(Cl)c1ccc(F)cc1` (configuration not stated): in the series on TZM [8], the midpoint of cytotoxicity, the CC50, lay at 263 µM. In [9], this compound registered a concentration for a half-maximal effect (EC50) of 126 µM. The selectivity ratio in series [10] amounted to 2.1.
Take `Cn1cc(C(=O)O)c(=O)c2ccc(N3CCN(c4cccc(C(F)(F)F)c4)CC3)nc21`: the EC50 in series [5] and in [6] was above 0.41 µg/mL in each case.
In the case of `CCCC1OC(=O)c2ccccc2C1(Cl)c1ccc(F)cc1` (configuration not stated), it took 251 µM to reach half-maximal cytotoxicity in the series with TZM [8] (CC50). Besides, in series [9], the EC50 turned out to be 314 µM. Besides, in series [10], the selectivity ratio is 0.8.
Turning to `Cc1cn([C@H]2C[C@H](N=[N+]=[N-])[C@@H](CO)O2)c(=O)[nH]c1=O` [ZIDOVUDINE], the IC50 in the series with C8166 amounted to 1570 µg/mL (≈ 5860 µM).
In the case of `O=C(CSC1[Se]N=NC1c1ccc(Cl)c(Cl)c1)Nc1ccccc1F` (configuration not stated), the EC50 in series [1] and in series [2] was above 26.9 µM throughout.
In the case of `NC1=CNC(=O)/C1=N/Nc1ccc(Br)cc1`, the inhibition at 50 µg/mL in series [14] came out at 98%. Further, the Activity with TZM [15] is listed as 40%.
As for `COc1ccc(N2CCN(C(=O)CN(Cc3ccccc3)c3ccc(Cl)cc3)CC2)cc1`, the IC50 in [16] was determined as 77.5 µM.
Regarding `Cn1cc(C(=O)O)c(=O)c2ccc(N3CCN(c4nc5ccccc5s4)CC3)nc21`, the results for the EC50 in [5] and in [6] were 0.02 µg/mL (≈ 0.0475 µM) and 0.03 µg/mL (≈ 0.0712 µM), respectively.
Turning to `CC(C)(NC(=O)OCc1ccccc1)c1cc(O)c(O)c(C(=O)NCc2ccccc2Cl)c1`, in series [11], the EC50 was 0.14 µM.
With `CC(C)(C)OC(=O)n1ccc2ccc(-c3ccc4ccn(Cc5cccc(C(=O)O)c5)c4c3)cc21`, in series [11], it took 0.8 µM to reach half-maximal inhibition (IC50).
`NC1=CNC(=O)/C1=N/Nc1ccc([N+](=O)[O-])cc1`: the inhibition at 50 µg/mL in series [14] is 91%. In the series on TZM [15], the Activity was found to be 80%.
With `Cn1ccc2c1S(=O)(=O)c1ccccc1NC2=O`, in series [11], the EC50 was determined as 14 µM.
Take `O=C(O)/C(O)=C/C(=O)c1cn(Cc2ccc(F)cc2)c2cc(N3CCN(CCCCl)CC3)ccc2c1=O`: the CC50 in the series on HeLa was above 50 µM. In series [17], this compound came in with a concentration for half-maximal inhibition (IC50) of 0.05 µM.
Turning to `COC(=O)C(N)(c1c[nH]c2ccc(F)cc12)C(F)(F)F` (configuration not stated), the CC50 in the series with TZM [8] stood at 49.3 µM. In addition, the EC50 in series [18] was 0.045 µM.

The values above are taken from ChEMBL document CHEMBL4402520, “Synthetic routes and structure-activity relationships (SAR) of anti-HIV agents: A key review” (Eur J Med Chem, 2019).
